This experiment has as its target TNFα (Homo sapiens, UniProt P01375). Put plainly: SPR on Biacore 4000, immobilised soluble TNFα. The format is binding. The settings on record: concentration of up to 100 μM. How it is done: In another experiment, BIO8898 was tested against the immobilised soluble form of CD40L and the soluble form of TNFα by SPR on a Biacore 4000 machine.
(SPR reads the build-up and loss of mass on a sensor chip optically.)

TNFα, sequence (P01375 77-233 limits assumed): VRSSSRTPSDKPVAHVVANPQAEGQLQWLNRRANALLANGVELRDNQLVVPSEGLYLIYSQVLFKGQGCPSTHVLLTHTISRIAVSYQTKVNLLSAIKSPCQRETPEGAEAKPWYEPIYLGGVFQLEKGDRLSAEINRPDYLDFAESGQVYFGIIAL

In the case of `O=C(NCc1cccc(-c2ccccc2)c1)c1cc(-c2cc(C(=O)NC(C(=O)O)C3CCCCC3)nc(C(=O)N3CCCC3CN3CCCC3)c2)cc(C(=O)N2CCCC2CN2CCCC2)n1` (stereo not shown) [BIO8898], the “binding to TNFα” value is recorded as “found not to bind to TNFα”.
